Results from US11285156B2, “Substituted piperazines as KRAS G12C inhibitors” (Amgen Inc., priority 2018, dated 2022).
Where two headings read alike, the source gives them in different places.

Legend:
[1] = system: Phosphorylation of ERK1/2 in A549 cells; assay: Phospho-ERK1/2 MSD assay in A549 cells; assay type: cell-based; settings: read-out: p-ERK IC50 (2 h, A549; μM), 2 h compound treatment, A549 cells, EGF stimulated
Method in brief: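 Phospho-ERK1/2 was quantified by MSD immunoassay in RIPA lysates of MIA PaCa-2 or A549 cells. Before lysis, cells received 10 ng/mL EGF for 10 min after 2 or 4 h exposure at 37° C. to a compound concentration series.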

[2] = biological target: GDP-bound KRAS protein (aa 1-169), containing both G12C and C118A amino acid substitutions (Homo sapiens (Human), UniProt P01116, C118A/G12C); assay: Coupled nucleotide exchange assay (SOS-mediated nucleotide exchange, AlphaScreen); assay type: biochemical; settings: read-out: Coupled exchange IC50 (5 min; μM); 5 min compound pre-incubation
Sequence of GDP-bound KRAS protein (aa 1-169), containing both G12C and C118A amino acid substitutions (P01116 other isoform, or with tags, fused parts or gaps G12C/C118A): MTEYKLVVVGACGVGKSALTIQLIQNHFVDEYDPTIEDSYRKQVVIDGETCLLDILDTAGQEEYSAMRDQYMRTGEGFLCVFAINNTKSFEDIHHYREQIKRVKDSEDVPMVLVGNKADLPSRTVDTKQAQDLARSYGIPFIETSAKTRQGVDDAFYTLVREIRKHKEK

[3] = system: Phosphorylation of ERK1/2 in MIA PaCa-2 cells; assay: Phospho-ERK1/2 MSD assay in MIA PaCa-2 cells; assay type: cell-based; settings: read-out: p-ERK IC50 (2 h, MiaPaCa-2; μM), 2 h compound treatment, MIA PaCa-2 cells, EGF stimulated
Method in brief: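 Phospho-ERK1/2 measured by MSD electrochemiluminescence kit in RIPA lysates of MIA PaCa-2 cells. Cells were treated with compound titrations for 2 or 4 h at 37 °C, 5% CO2, followed by a 10 min pulse of 10 ng/mL EGF.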

Row | SMILES | IC50 [1] [µM] | IC50 [2] [µM] | IC50 [3] [µM] | IC50 ([1]; Homo sapiens, A549, 2 h) [µM] | IC50 ([3]; Homo sapiens, MIA PaCa-2, 2 h) [µM]
1 | C=CC(=O)N1C[C@H](C)N(c2nc(=O)n(-c3c(C)ccnc3C(C)C)c3nc(-c4sccc4C)c(Cl)cc23)C[C@H]1C (atropisomer, axis not shown; (M)) [Example 93-1, (M)-6-Chloro-4-[(2S,5R)-2,5-dimethyl-4-prop-2-enoyl-piperazin-1-yl]-1-(2-isopropyl-4-methyl-3-pyridyl)-7-(3-methyl-2-thienyl)pyrido[2,3-d]pyrimidin-2-one] | > 7.5 | 0.055 | 0.097 |  | 
2 | C=CC(=O)N1C[C@H](C)N(c2nc(=O)n(-c3c(C)ccnc3C(C)C)c3nc(-c4ccccc4C(C)C)c(F)cc23)C[C@H]1C (atropisomer, axis not shown; (M)) [Example 94-1, (M)-4-[(2S,5R)-2,5-Dimethyl-4-prop-2-enoyl-piperazin-1-yl]-6-fluoro-1-(2-isopropyl-4-methyl-3-pyridyl)-7-(2-isopropylphenyl)pyrido[2,3-d]pyrimidin-2-one] | > 7.5 | 0.077 | 0.107 |  | 
3 | C=CC(=O)N1C[C@H](C)N(c2nc(=O)n(-c3c(C)ccnc3C(C)C)c3nc(-c4cc(C)ccc4F)c(F)cc23)C[C@H]1C (atropisomer, axis not shown; (M)) [Example 94-4, (M)-4-[(2S,5R)-2,5-dimethyl-4-prop-2-enoyl-piperazin-1-yl]-6-fluoro-7-(2-fluoro-5-methyl-phenyl)-1-(2-isopropyl-4-methyl-3-pyridyl)pyrido [2,3-d]pyrimidin-2-one] |  | 0.222 |  | > 7.5 | 0.218
4 | C=CC(=O)N1C[C@H](C)N(c2nc(=O)n(-c3c(C)ccnc3C(C)C)c3nc(-c4cc(Cl)ccc4F)c(F)cc23)C[C@H]1C (atropisomer, axis not shown; (M)) [Example 94-5, (M)-7-(5-chloro-2-fluoro-phenyl)-4-[(2S,5R)-2,5-dimethyl-4-prop-2-enoyl-piperazin-1-yl]-6-fluoro-1-(2-isopropyl-4-methyl-3-pyridyl)pyrido [2,3-d]pyrimidin-2-one] |  | 0.708 |  | > 7.5 | 0.265
5 | C=CC(=O)N1C[C@H](C)N(c2nc(=O)n(-c3c(C)ccnc3C(C)C)c3nc(-c4ccccc4C)c(F)cc23)C[C@H]1C (atropisomer, axis not shown; (M)) [Example 94-8, (M)-4-[(2S,5R)-2,5-Dimethyl-4-prop-2-enoyl-piperazin-1-yl]-6-fluoro-1-(2-isopropyl-4-methyl-3-pyridyl)-7-(o-tolyl)pyrido[2,3-d]pyrimidin-2-one] |  | 0.255 |  | > 7.5 | 0.131
6 | C=CC(=O)N1C[C@H](C)N(c2nc(=O)n(-c3c(C)ccnc3C(C)C)c3nc(-c4c(C)cccc4F)c(F)cc23)C[C@H]1C (atropisomer, axis not shown; (M)) [Example 94-10, (M)-4-[(2S,5R)-2,5-Dimethyl-4-prop-2-enoyl-piperazin-1-yl]-6-fluoro-7-(2-fluoro-6-methyl-phenyl)-1-(2-isopropyl-4-methyl-3-pyridyl)pyrido [2,3-d]pyrimidin-2-] |  | 0.137 |  | > 7.5 | 0.079
7 | C=CC(=O)N1C[C@H](C)N(c2nc(=O)n(-c3c(C)ccnc3C(C)C)c3nc(-c4c(F)cccc4Cl)c(F)cc23)C[C@H]1C (atropisomer, axis not shown; (M)) [Example 94-12, (M)-7-(2-Chloro-6-fluoro-phenyl)-4-[(25,5R)-2,5-dimethyl-4-prop-2-enoyl-piperazin-1-yl]-6-fluoro-1-(2-isopropyl-4-methyl-3-pyridyl)pyrido [2,3-d]pyrimidin-2-one] |  | 0.184 |  | > 7.5 | 0.128
8 | C=CC(=O)N1C[C@H](C)N(c2nc(=O)n(-c3c(C)ccnc3C(C)C)c3nc(-c4c(F)cccc4C(N)=O)c(F)cc23)C[C@H]1C (atropisomer, axis not shown; (M)) [Example 94-19, (M)-2-[4-[(2S,5R)-2,5-Dimethyl-4-prop-2-enoyl-piperazin-1-yl]-6-fluoro-1-(2-isopropyl-4-methyl-3-pyridyl)-2-oxo-pyrido[2,3-d]pyrimidin-7-yl]-3-fluoro-benzamide] |  | 0.067 |  | > 7.5 | 0.518
9 | C=CC(=O)N1C[C@H](C)N(c2nc(=O)n(-c3c(C)ccnc3C(C)C)c3nc(C4CCCCC4)c(Cl)cc23)C[C@H]1C (atropisomer, axis not shown; (M)) [Example 95-1, (M)-6-Chloro-7-cyclohexyl-4-[(2S,5R)-2,5-dimethyl-4-prop-2-enoyl-piperazin-1-yl]-1-(2-isopropyl-4-methyl-3-pyridyl)pyrido[2,3-d]pyrimidin-2-one] | > 7.5 | 0.053 | 0.318 |  | 
10 | C=CC(=O)N1C[C@H](C)N(c2nc(=O)n(-c3c(C)ccnc3C(C)C)c3nc(C4CCC4)c(Cl)cc23)C[C@H]1C (atropisomer, axis not shown; (M)) [Example 95-5, (M)-6-chloro-7-cyclobutyl-4-[(2S,5R)-2,5-dimethyl-4-prop-2-enoyl-piperazin-1-yl]-1-(2-isopropyl-4-methyl-3-pyridyl)pyrido [2,3-d]pyrimidin-2-one] |  | 0.304 |  | > 7.5 | 0.611
11 | C=CC(=O)N1C[C@H](C)N(c2nc(=O)n(-c3c(C)ccnc3C(C)C)c3nc(-c4cc(OC(F)(F)F)ccc4F)c(Cl)cc23)C[C@H]1C (atropisomer, axis not shown; (M)) [Example 124-12, (M)-6-Chloro-4-[(2S,5R)-2,5-dimethyl-4-prop-2-enoyl-piperazin-1-yl]-7-[2-fluoro-5-(trifluoromethoxy)phenyl]-1-(2-isopropyl-4-methyl-3-pyridyl)pyrido[2,3-d]pyrimidin-2-one] |  | 0.313 |  | > 7.5 | 0.231
12 | C=CC(=O)N1C[C@H](C)N(c2nc(=O)n(-c3c(C)ccnc3C(C)C)c3nc(-c4cc(F)c(F)cc4O)c(Cl)cc23)C[C@H]1C (atropisomer, axis not shown; (M)) [Example 124-13, (M)-6-Chloro-7-(4,5-difluoro-2-hydroxy-phenyl)-4-[(2S,5R)-2,5-dimethyl-4-prop-2-enoyl-piperazin-1-yl]-1-(2-isopropyl-4-methyl-3-pyridyl)pyrido[2,3-d]pyrimidin-2-one] |  | 0.068 |  | > 7.5 | 0.094
13 | C=CC(=O)N1C[C@H](C)N(c2nc(=O)n(-c3c(C)ccnc3C(C)C)c3nc(-c4c(F)cccc4NC(C)=O)c(Cl)cc23)C[C@H]1C (atropisomer, axis not shown; (M)) [Example 129-1, (M)-N-[2-[6-Chloro-4-[(2S,5R)-2,5-dimethyl-4-prop-2-enoyl-piperazin-1-yl]-1-(2-isopropyl-4-methyl-3-pyridyl)-2-oxo-pyrido[2,3-d]pyrimidin-7-yl]-3-fluoro-phenyl]acetamide] | > 7.5 | 0.054 | 0.124 |  | 
14 | C=CC(=O)N1C[C@H](C)N(c2nc(=O)n(-c3c(C)ccnc3C(C)C)c3nc(-c4c(F)cccc4NC(=O)C(F)(F)F)c(Cl)cc23)C[C@H]1C (atropisomer, axis not shown; (M)) [Example 129-2, (M)-N-[2-[6-Chloro-4-[(2S,5R)-2,5-dimethyl-4-prop-2-enoyl-piperazin-1-yl]-1-(2-isopropyl-4-methyl-3-pyridyl)-2-oxo-pyrido[2,3-d]pyrimidin-7-yl]-3-fluoro-phenyl]-2,2,2-trifluoro-acetamide] |  | 0.065 |  | > 7.5 | 0.027
15 | C=CC(=O)N1C[C@H](C)N(c2nc(=O)n(-c3c(C)ccnc3C(C)C)c3nc(-c4c(F)cccc4NC(=O)CC)c(Cl)cc23)C[C@H]1C (atropisomer, axis not shown; (M)) [Example 129-4, (M)-N-[2-[6-Chloro-4-[(2S,5R)-2,5-dimethyl-4-prop-2-enoyl-piperazin-1-yl]-1-(2-isopropyl-4-methyl-3-pyridyl)-2-oxo-pyrido[2,3-d]pyrimidin-7-yl]-3-fluoro-phenyl]propanamide] |  | 0.053 |  | > 7.5 | 0.058
16 | C=CC(=O)N1C[C@H](C)N(c2nc(=O)n(-c3c(C)ccnc3C(C)C)c3nc(-c4ccccc4NC(=O)C(F)(F)F)c(Cl)cc23)C[C@H]1C (atropisomer, axis not shown; (M)) [Example 129-5] |  | 0.19 |  | > 7.5 | 0.087
17 | C=CC(=O)N1C[C@H](C)N(c2nc(=O)n(-c3c(C)ccnc3C(C)C)c3nc(-c4ccccc4NC(=O)C4CC4)c(Cl)cc23)C[C@H]1C (atropisomer, axis not shown; (M)) [Example 129-6, (M)-N-[2-[6-Chloro-4-[(2S,5R)-2,5-dimethyl-4-prop-2-enoyl-piperazin-1-yl]-1-(2-isopropyl-4-methyl-3-pyridyl)-2-oxo-pyrido[2,3-d]pyrimidin-7-yl]phenyl]cyclopropanecarboxamide] |  | 0.06 |  | > 7.5 | 0.058
